Test results published in US20230241243A1, “CARRIER PARTICLE-DRUG CONJUGATES, SELF-IMMOLATIVE LINKERS, AND USES THEREOF” (priority 2020, published 2023).
Where a name gives a salt, the structure may show the parent alone.

Tested on: Human KB cells
Assay: Cell viability assay of payloads (CellTiter-Glo 2.0)
Assay type: cell-based
Settings: 168 h; Human KB cells, 7 days treatment, 0-1,000 nM; read-out: IC50 values (diluted in RPMI medium)
Protocol: Method: Human KB cells (ATCC® CCL-17™) were cultured in folic acid free rpmi-1640 medium (ThermoFisher, GIBCO) for at least 7 days before the study. The cells were seeded in opaque 96-well plates and allowed to attach overnight (cell density was carefully controlled to be 3,000 cells per well at the time of assay). After that, cells were treated with drug analogs (suspended in the same RPMI-1640 medium) at a concentration of zero to 1,000 nM. After 7 days, cell viability was assessed using the CellTiter-Glo® 2.0 assay (Promega) according to the manufacturer's instructions. The percent of viable cells at each concentration was calculated by normalizing the luminescence values to the untreated control. The half-maximal inhibitory concentration (IC50) of the payloads were plotted and fitted by using the Prism 8 software (GraphPad). Table 2 provides the IC50 of the payloads of the present disclosure (‘+’ indicates 1-9.9 nm; ‘++’ indicates 10-100 nm).

Structure (SMILES)	IC50
CCc1c2c(nc3ccc(Oc4nc(Cl)nc(NCCSSCCN)n4)cc13)-c1cc3c(c(=O)n1C2)COC(=O)[C@]3(O)CC [Example 463, (S)-9-((4-((2-((2-aminoethyl)disulfaneyl)ethyl)amino)-6-chloro-1,3,5-triazin-2-yl)oxy)-4,11-diethyl-4-hydroxy-1,12-dihydro-14H-pyrano[3′,4′:6,7]indolizino[1,2-b]quinoline-3,14(4H)-dione]	10 to 100 nM

Same assay, conditions: Homo sapiens, KB, 168 h, read-out: IC50 values (diluted in RPMI medium)

Structure (SMILES)	IC50
CCc1c2c(nc3ccc(OCCCN)cc13)-c1cc3c(c(=O)n1C2)COC(=O)[C@]3(O)CC [Example 105]	1 to 9.9 nM
CCc1c2c(nc3ccc(OCCCSC(C)=O)cc13)-c1cc3c(c(=O)n1C2)COC(=O)[C@]3(O)CC [Example 327]	10 to 100 nM
CCc1c2c(nc3ccc(OCCCSSC(C)(C)CN)cc13)-c1cc3c(c(=O)n1C2)COC(=O)[C@]3(O)CC [Example 331]	10 to 100 nM
CC[C@@]1(O)C(=O)OCc2c1cc1n(c2=O)Cc2c-1nc1cc(F)c(C)c3c1c2[C@@H](Nc1nc(Cl)nc(NCCSSC(C)(C)CN)n1)CC3 [Example 377, (1S,9S)-1-((4-((2-((1-amino-2-methylpropan-2-yl)disulfaneyl)ethyl)amino)-6-chloro-1,3,5-triazin-2-yl)amino)-9-ethyl-5-fluoro-9-hydroxy-4-methyl-1,2,3,9,12,15-hexahydro-10H,13H-benzo[de]pyrano[3′,4′:6,7]indolizino[1,2-b]quinoline-10,13-dione 2,2,2-trifluoroacetate]	10 to 100 nM
CCc1c2c(nc3ccc(OCC(=O)NN)cc13)-c1cc3c(c(=O)n1C2)COC(=O)[C@]3(O)CC [Example 385, (S)-2-((4,11-diethyl-4-hydroxy-3,14-dioxo-3,4,12,14-tetrahydro-1H-pyrano[3′,4′:6,7]indolizino[1,2-b]quinolin-9-yl)oxy)acetohydrazide]	10 to 100 nM
CC[C@]1(O)C(=O)OCc2c1cc1n(c2=O)Cc2c-1nc1cc(F)c(C)c3c1c2[C@H](NC(=O)C(C)(C)C(=O)NN)CC3 [Example 410, N-((1R,9R)-9-ethyl-5-fluoro-9-hydroxy-4-methyl-10,13-dioxo-2,3,9,10,13,15-hexahydro-1H,12H-benzo[de]pyrano[3′,4′:6,7]indolizino[1,2-b]quinolin-1-yl)-3-hydrazineyl-2,2-dimethyl-3-oxopropanamide]	10 to 100 nM
CCc1c2c(nc3ccc(OC(C)(C)C(=O)NN)cc13)-c1cc3c(c(=O)n1C2)COC(=O)[C@]3(O)CC [Example 422, (S)-2-((4,11-diethyl-4-hydroxy-3,14-dioxo-3,4,12,14-tetrahydro-1H-pyrano[3′,4′:6,7]indolizino[1,2-b]quinolin-9-yl)oxy)-2-methylpropanehydrazide]	10 to 100 nM
CC[C@@]1(O)C(=O)OCc2c1cc1n(c2=O)Cc2c-1nc1cc(F)c(C)c3c1c2[C@@H](NC(=O)CS)CC3 [Example 452, N-((1S,9S)-9-ethyl-5-fluoro-9-hydroxy-4-methyl-10,13-dioxo-2,3,9,10,13,15-hexahydro-1H,12H-benzo[de]pyrano[3′,4′:6,7]indolizino[1,2-b]quinolin-1-yl)-2-mercaptoacetamide]	10 to 100 nM
CC[C@@]1(O)C(=O)OCc2c1cc1n(c2=O)Cc2c-1nc1cc(F)c(C)c3c1c2[C@@H](NC(=O)CSSC(C)(C)CN)CC3 [Example 454, 2-((1-amino-2-methylpropan-2-yl)disulfaneyl)-N-((1S,9S)-9-ethyl-5-fluoro-9-hydroxy-4-methyl-10,13-dioxo-2,3,9,10,13,15-hexahydro-1H,12H-benzo[de]pyrano[3′,4′:6,7]indolizino[1,2-b]quinolin-1-yl)acetamide 2,2,2-trifluoroacetic acid salt]	10 to 100 nM
CC[C@@]1(O)C(=O)OCc2c1cc1n(c2=O)Cc2c-1nc1cc(F)c(C)c3c1c2[C@@H](NC(=O)C(O)c1ccc(N)cc1)CC3 (stereo partly drawn) [Example 458, 2-(4-aminophenyl)-N-((1S,9S)-9-ethyl-5-fluoro-9-hydroxy-4-methyl-10,13-dioxo-2,3,9,10,13,15-hexahydro-1H,12H-benzo[de]pyrano[3′,4′:6,7]indolizino[1,2-b]quinolin-1-yl)-2-hydroxyacetamide]	1 to 9.9 nM

Tested on: not listed separately
Assay: Drug-release assay of nanoparticle-conjugated linker-payloads under cleavage conditions (Cat-B, redox-responsive or pH-sensitive cleaving study), RP-HPLC
Assay type: in vitro ADME
Settings: linker-payload conjugated to DBCO-functionalized silica nanoparticle, 37° C., 24 hours
Procedure, shortened: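 Azide linker-drugs were click-conjugated to DBCO-functionalized ultrasmall silica nanoparticles and incubated under cleavage conditions, e.g., Cat-B in 25 mM MES, 5 mM DTT, pH 5.0. Released versus non-released drug was quantified by C18 RP-HPLC peak area. Gradients were 0.01% TFA water/acetonitrile for protease/redox linkers and water/acetonitrile for pH-sensitive linkers.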

Structure (SMILES)	% of Payload Release in 24 Hours Under Cleavage Conditions
CC[C@@]1(O)C(=O)OCc2c1cc1n(c2=O)Cc2c-1nc1cc(F)c(C)c3c1c2[C@@H](NC(=O)OCc1c(F)cc(NC(=O)[C@H](CCCNC(N)=O)NC(=O)[C@@H](NC(=O)CCOCCOCCOCCOCCOCCOCCOCCOCCOCCN=[N+]=[N-])C(C)C)cc1F)CC3 (single isomer, unassigned) [Example 27, 4-((32s,35s)-1-azido-32-isopropyl-30,33-dioxo-35-(3-ureidopropyl)-3,6,9,12,15,18,21,24,27-nonaoxa-31,34-diazahexatriacontan-36-amido)-2,6-difluorobenzyl ((1s,9s)-9-ethyl-5-fluoro-9-hydroxy-4-methyl-10,13-dioxo-2,3,9,10,13,15-hexahydro-1H,12H-benzo[de]pyrano[3′,4′:6,7]indolizino[1,2-b]quinolin-1-yl)carbamate]	++++ (‘++++’ indicates 76-100% release)
CC[C@@]1(O)C(=O)OCc2c1cc1n(c2=O)Cc2c-1nc1cc(F)c(C)c3c1c2[C@@H](NC(=O)C(O)c1ccc(NC(=O)[C@H](CCCNC(N)=O)NC(=O)[C@@H](NC(=O)CCOCCOCCOCCOCCOCCOCCN=[N+]=[N-])C(C)C)cc1)CC3 (stereo partly drawn) [Example 18, 1-azido-N-((2S)-1-(((2S)-1-((4-(2-(((1S,9S)-9-ethyl-5-fluoro-9-hydroxy-4-methyl-10,13-dioxo-2,3,9,10,13,15-hexahydro-1H,12H-benzo[de]pyrano[3′,4′:6,7]indolizino[1,2-b]quinolin-1-yl)amino)-1-hydroxy-2-oxoethyl)phenyl)amino)-1-oxo-5-ureidopentan-2-yl)amino)-3-methyl-1-oxobutan-2-yl)-3,6,9,12,15,18-hexaoxahenicosan-21-amide]	+++ (‘+++’ indicates 51-75% release)
CCc1c2c(nc3ccc(OCCCNC(=O)OCc4ccc(NC(=O)[C@H](CCCCN)NC(=O)[C@H](Cc5ccccc5)NC(=O)CCOCCOCCOCCOCCOCCOCCOCCOCCOCCN=[N+]=[N-])cc4)cc13)-c1cc3c(c(=O)n1C2)COC(=O)[C@]3(O)CC [Example 28, 4-((32S,35S)-35-(4-aminobutyl)-1-azido-32-benzyl-30,33-dioxo-3,6,9,12,15,18,21,24,27-nonaoxa-31,34-diazahexatriacontan-36-amido)benzyl (3-(((S)-4,11-diethyl-4-hydroxy-3,14-dioxo-3,4,12,14-tetrahydro-1H-pyrano[3′,4′:6,7]indolizino[1,2-b]quinolin-9-yl)oxy)propyl)carbamate]	+++ (‘+++’ indicates 51-75% release)

Same assay, conditions: linker-payload conjugated to nanoparticle, 37° C., @ 3 Hrs

Structure (SMILES)	% of Payload Release Under Cleavage Conditions
CCc1c2c(nc3ccc(OCC(=O)N/N=C(/C)c4ccc(OCCOCCOCCOCCOCCOCCN=[N+]=[N-])cc4)cc13)-c1cc3c(c(=O)n1C2)COC(=O)[C@]3(O)CC [Example 64, (S,Z)-N′-(1-(4-((17-azido-3,6,9,12,15-pentaoxaheptadecyl)oxy)phenyl)ethylidene)-2-((4,11-diethyl-4-hydroxy-3,14-dioxo-3,4,12,14-tetrahydro-1H-pyrano[3′,4′:6,7]indolizino[1,2-b]quinolin-9-yl)oxy)acetohydrazide]	+++ @ 3 Hrs (‘+++’ indicates 51-75% release)

Tested on: KB cell line
Assay: not given
Settings: read-out: IC50 in KB cell line (++++); FA ligands per particle 12-22; linker-drug conjugates per particle 17-25
Protocol: The in vitro cytotoxicity of the NDCs disclosed herein were tested in cancer cells. The cancer cells were cultured in folic acid-free medium (RPMI1640, ThermoFisher, GIBCO) for at least one week before the study. Cells were plated in opaque 96-well plates at a density of 3×10^3 cells per well (total of […]) and allowed to attach overnight. The following day, cells were treated with NDC (FA-CDC) prepared using the linker-payload conjugate precursor compound 202 (Example 33), at a concentration range of 0-50 nM (0, 0.001, 0.005, 0.01, 0.05, 0.1, 0.5, 1, 5, 10, 50 nM) by adding […] of 10x stock FA-CDC Solution.
Cells were treated for a pre-defined exposure time (depending on the study design, e.g., 4-6 hours, or 7 days). In the case of short-exposure-time viability study, cancer cells in each wells were washed with […] PBS and refreshed with […] of cell medium. After washing, the plates were returned back to 37° C. incubator for 7 days before the viability assay. In the case of 7-day-exposure-time viability study, no additional washing step was performed. After 7 days, the cell viability was assessed using the CellTiter-Glo2.0 assay (Promega) according to manufacturer's instructions. Data for both viability and proliferation were plotted using Prism7 software (GraphPad).

Structure (SMILES)	IC50
CC[C@@]1(O)C(=O)OCc2c1cc1n(c2=O)Cc2c-1nc1cc(F)c(C)c3c1c2[C@@H](NC(=O)OCc1c(F)cc(NC(=O)[C@H](CCCNC(N)=O)NC(=O)[C@@H](NC(=O)CCOCCOCCOCCOCCOCCOCCOCCOCCOCCN=[N+]=[N-])C(C)C)cc1F)CC3 (single isomer, unassigned) [Example 27, 4-((32s,35s)-1-azido-32-isopropyl-30,33-dioxo-35-(3-ureidopropyl)-3,6,9,12,15,18,21,24,27-nonaoxa-31,34-diazahexatriacontan-36-amido)-2,6-difluorobenzyl ((1s,9s)-9-ethyl-5-fluoro-9-hydroxy-4-methyl-10,13-dioxo-2,3,9,10,13,15-hexahydro-1H,12H-benzo[de]pyrano[3′,4′:6,7]indolizino[1,2-b]quinolin-1-yl)carbamate]	5.2 nM
CC[C@@]1(O)C(=O)OCc2c1cc1n(c2=O)Cc2c-1nc1cc(F)c(C)c3c1c2[C@@H](NC(=O)C(O)c1ccc(NC(=O)[C@H](CCCNC(N)=O)NC(=O)[C@@H](NC(=O)CCOCCOCCOCCOCCOCCOCCN=[N+]=[N-])C(C)C)cc1)CC3 (stereo partly drawn) [Example 18, 1-azido-N-((2S)-1-(((2S)-1-((4-(2-(((1S,9S)-9-ethyl-5-fluoro-9-hydroxy-4-methyl-10,13-dioxo-2,3,9,10,13,15-hexahydro-1H,12H-benzo[de]pyrano[3′,4′:6,7]indolizino[1,2-b]quinolin-1-yl)amino)-1-hydroxy-2-oxoethyl)phenyl)amino)-1-oxo-5-ureidopentan-2-yl)amino)-3-methyl-1-oxobutan-2-yl)-3,6,9,12,15,18-hexaoxahenicosan-21-amide]	17.5 nM
CCc1c2c(nc3ccc(OCCCNC(=O)OCc4ccc(NC(=O)[C@H](CCCCN)NC(=O)[C@H](Cc5ccccc5)NC(=O)CCOCCOCCOCCOCCOCCOCCOCCOCCOCCN=[N+]=[N-])cc4)cc13)-c1cc3c(c(=O)n1C2)COC(=O)[C@]3(O)CC [Example 28, 4-((32S,35S)-35-(4-aminobutyl)-1-azido-32-benzyl-30,33-dioxo-3,6,9,12,15,18,21,24,27-nonaoxa-31,34-diazahexatriacontan-36-amido)benzyl (3-(((S)-4,11-diethyl-4-hydroxy-3,14-dioxo-3,4,12,14-tetrahydro-1H-pyrano[3′,4′:6,7]indolizino[1,2-b]quinolin-9-yl)oxy)propyl)carbamate]	72.2 nM
CCc1c2c(nc3ccc(OCC(=O)N/N=C(\C)c4ccc(OCCCCOCCOCCOCCOCCOCCOCCN=[N+]=[N-])cc4)cc13)-c1cc3c(c(=O)n1C2)COC(=O)[C@]3(O)CC [Example 75, (S,E)-N′-(1-(4-((1-azido-3,6,9,12,15,18-hexaoxadocosan-22-yl)oxy)phenyl)ethylidene)-2-((4,11-diethyl-4-hydroxy-3,14-dioxo-3,4,12,14-tetrahydro-1H-pyrano[3′,4′:6,7]indolizino[1,2-b]quinolin-9-yl)oxy)acetohydrazide]	42.7 nM
